The record followed here is ChEMBL document CHEMBL5726107, “Histone demethylase inhibitors” (2017).

A value given as a limit tells only on which side of the number the result lay.

By IC50 is commonly meant the concentration that gives 50% inhibition.

The target of assay [1] is Lysine-specific demethylase 5B (Homo sapiens, UniProt Q9UGL1). The assay can be described thus: The reaction mixture was incubated at room temperature for 30 minutes, and terminated by the addition of 6 μl of 5 mM EDTA in LANCE detection buffer containing 50 nM Phycolink Streptavidin-allophycocyanin and 2 nM Europium-anti-H3K4me1-2 antibody. Background: TR-FRET usually uses a lanthanide donor and a delayed reading to cut background.

In assay [2] the target is Lysine-specific demethylase 5A (Homo sapiens, UniProt P29375). The assay can be described thus: Enzymatic Assay: The enzymatic assay of Jarid1A activity is based upon Time Resolved-Fluorescence Resonance Energy Transfer (TR-FRET) detection. […] The reaction mixture was incubated at room temperature for 30 minutes, and terminated by the addition of 6 μl of 5 mM EDTA in LANCE detection buffer containing 50 nM Phycolink Streptavidin-allophycocyanin and 2 nM Europium-anti-H3K4me1-2 antibody.
Chain of Lysine-specific demethylase 5A (P29375 whole entry): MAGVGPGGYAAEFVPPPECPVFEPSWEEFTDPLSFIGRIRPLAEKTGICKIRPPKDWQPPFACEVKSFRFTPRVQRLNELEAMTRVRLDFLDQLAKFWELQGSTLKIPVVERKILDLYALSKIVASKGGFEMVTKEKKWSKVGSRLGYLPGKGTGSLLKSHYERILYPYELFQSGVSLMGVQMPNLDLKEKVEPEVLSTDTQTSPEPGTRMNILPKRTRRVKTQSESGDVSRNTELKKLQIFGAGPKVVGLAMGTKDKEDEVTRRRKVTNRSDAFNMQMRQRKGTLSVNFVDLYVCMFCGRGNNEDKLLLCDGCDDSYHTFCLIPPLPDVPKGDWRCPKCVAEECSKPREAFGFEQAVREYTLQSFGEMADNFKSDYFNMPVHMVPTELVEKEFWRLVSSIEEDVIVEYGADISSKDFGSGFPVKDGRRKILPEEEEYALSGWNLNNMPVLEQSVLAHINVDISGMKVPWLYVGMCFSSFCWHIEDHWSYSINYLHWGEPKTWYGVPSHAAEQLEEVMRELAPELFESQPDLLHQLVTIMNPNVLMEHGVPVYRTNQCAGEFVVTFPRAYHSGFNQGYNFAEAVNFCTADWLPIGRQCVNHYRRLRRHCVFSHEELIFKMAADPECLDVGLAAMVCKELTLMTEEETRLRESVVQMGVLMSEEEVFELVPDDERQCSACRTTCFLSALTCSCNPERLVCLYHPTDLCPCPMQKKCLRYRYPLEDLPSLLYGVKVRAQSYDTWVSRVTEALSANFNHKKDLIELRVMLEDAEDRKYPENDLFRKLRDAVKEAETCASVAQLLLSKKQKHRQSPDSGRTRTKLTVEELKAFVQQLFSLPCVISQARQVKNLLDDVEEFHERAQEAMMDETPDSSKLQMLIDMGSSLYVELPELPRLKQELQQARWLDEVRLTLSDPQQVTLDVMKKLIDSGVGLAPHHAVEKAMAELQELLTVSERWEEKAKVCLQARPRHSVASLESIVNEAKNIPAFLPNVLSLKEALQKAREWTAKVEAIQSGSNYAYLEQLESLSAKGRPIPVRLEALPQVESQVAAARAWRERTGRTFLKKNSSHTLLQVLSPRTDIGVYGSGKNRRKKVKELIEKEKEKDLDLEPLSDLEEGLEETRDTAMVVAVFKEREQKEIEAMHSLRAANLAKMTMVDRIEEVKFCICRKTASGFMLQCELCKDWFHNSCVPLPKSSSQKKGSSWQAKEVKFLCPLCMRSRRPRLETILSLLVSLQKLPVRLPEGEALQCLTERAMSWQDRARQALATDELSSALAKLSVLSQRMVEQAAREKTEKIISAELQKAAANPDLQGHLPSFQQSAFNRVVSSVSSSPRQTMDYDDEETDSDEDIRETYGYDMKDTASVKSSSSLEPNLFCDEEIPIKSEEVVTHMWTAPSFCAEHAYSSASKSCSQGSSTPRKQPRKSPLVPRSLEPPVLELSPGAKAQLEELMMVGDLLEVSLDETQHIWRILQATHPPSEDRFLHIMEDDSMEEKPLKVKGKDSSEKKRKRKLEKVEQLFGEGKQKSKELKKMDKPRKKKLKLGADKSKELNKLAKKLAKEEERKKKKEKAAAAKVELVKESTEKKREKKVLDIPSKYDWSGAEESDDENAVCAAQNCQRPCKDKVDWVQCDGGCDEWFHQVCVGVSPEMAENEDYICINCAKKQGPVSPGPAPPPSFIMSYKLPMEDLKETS

Chain of Lysine-specific demethylase 5B (Q9UGL1 whole entry): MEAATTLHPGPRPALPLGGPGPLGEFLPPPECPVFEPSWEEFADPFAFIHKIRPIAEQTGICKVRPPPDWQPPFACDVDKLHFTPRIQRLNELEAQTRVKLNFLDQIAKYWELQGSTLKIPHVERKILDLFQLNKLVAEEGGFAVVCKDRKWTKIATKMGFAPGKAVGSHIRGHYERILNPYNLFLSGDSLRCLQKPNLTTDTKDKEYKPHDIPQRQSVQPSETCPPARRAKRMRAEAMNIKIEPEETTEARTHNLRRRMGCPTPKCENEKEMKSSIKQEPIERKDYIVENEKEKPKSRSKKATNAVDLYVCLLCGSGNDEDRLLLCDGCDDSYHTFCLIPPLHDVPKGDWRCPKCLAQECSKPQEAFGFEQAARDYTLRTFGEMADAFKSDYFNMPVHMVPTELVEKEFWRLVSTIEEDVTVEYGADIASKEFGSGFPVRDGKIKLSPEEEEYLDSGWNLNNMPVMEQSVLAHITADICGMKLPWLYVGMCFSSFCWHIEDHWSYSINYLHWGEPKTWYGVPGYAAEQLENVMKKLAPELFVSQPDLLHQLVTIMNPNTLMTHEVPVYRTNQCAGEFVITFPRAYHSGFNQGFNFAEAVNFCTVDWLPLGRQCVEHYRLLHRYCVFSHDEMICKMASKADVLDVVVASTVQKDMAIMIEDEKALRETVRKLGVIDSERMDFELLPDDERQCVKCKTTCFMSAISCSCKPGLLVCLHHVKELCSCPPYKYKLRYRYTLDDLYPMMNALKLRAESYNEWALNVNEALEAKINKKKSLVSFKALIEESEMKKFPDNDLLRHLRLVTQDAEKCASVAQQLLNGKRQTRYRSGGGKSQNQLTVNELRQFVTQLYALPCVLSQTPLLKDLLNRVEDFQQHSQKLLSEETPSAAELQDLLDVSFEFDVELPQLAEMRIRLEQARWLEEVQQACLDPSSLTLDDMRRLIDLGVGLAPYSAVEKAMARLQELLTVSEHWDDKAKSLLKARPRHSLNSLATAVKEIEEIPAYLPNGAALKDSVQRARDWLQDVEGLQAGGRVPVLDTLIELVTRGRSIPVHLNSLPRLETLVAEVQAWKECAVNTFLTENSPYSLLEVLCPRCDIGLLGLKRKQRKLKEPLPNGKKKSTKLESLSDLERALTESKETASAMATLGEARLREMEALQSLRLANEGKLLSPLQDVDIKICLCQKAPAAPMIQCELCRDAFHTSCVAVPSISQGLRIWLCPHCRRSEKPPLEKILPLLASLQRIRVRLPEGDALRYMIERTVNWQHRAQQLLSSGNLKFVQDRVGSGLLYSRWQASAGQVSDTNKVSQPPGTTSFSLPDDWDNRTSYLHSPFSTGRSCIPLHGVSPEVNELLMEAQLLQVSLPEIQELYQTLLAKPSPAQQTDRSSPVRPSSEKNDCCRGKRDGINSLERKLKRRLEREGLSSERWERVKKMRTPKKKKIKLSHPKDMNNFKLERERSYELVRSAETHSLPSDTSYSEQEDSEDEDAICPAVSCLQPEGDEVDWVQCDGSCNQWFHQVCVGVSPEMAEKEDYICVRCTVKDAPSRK

`CCCn1nc(Nc2cnccc2C(=O)O)c2cccc(C)c21`: the IC50 in assay [1] and in assay [2] was < 100 nM each time.
